From patent US8278072B1, “Method for synthesis of sialylated products using reversible sialylation” (Health Research, Inc., priority 2007, dated 2012)

Experiments:
Assay type in all cases: biochemical
ST3Gal-II [1] = target: T1, ST3Gal-II (Rattus norvegicus, UniProt Q11205); assay: Serial transfer of sialic acid from donor via 5′-CMP to acceptors (scheme-II); settings: 0.15 mM donor; 2 mM 5′-CMP with core-2 donors
T1 construct: purchased Calbiochem
T1 sequence (Q11205 1-350): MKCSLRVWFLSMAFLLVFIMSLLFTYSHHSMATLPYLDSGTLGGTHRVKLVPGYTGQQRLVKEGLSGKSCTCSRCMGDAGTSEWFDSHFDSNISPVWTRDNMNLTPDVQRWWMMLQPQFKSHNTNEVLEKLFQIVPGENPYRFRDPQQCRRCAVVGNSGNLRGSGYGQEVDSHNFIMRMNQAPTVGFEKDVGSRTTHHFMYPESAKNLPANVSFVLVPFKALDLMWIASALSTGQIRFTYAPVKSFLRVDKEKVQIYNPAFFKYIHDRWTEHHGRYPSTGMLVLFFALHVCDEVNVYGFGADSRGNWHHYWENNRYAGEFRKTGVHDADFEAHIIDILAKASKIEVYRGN
Protocol: FIG. 3. Serial transfer of sialic acid using scheme-II was followed at increasing concentrations of acceptor D-Fucβ1,3GalNAcα-O-Bn. The donor used was either: i) 0.15 mM [9-^3H]CMP-NeuAc; or, ii) 0.15 mM [9-^3H]NeuAcα2,3Galβ1,3(4-FGlcNAcβ1,6)GalNAcα-O-Bn [9-^3H [2]] in the presence of 2.0 mM 5′-CMP, or iii) [9-^3H]NeuAcα2,3Galβ1,3(6-O-SulfoGlcNAcβ1,6)GalNAcα-O—Al [[9-^3H] [4]] in the presence of 2.0 mM 5′-CMP. In runs where [9-^3H [2]] was donor since both and [2] bind C18 cartridges, control runs were performed in the absence of D-Fucβ1,3GalNAcα-O-Bn to estimate the amount of [9-^3H]CMP-NeuAc formed under the experimental conditions. 80-85% of the radioactivity was transferred to CMP-NeuAc in these runs. The amount of CMP-NeuAc remaining in runs with was then subtracted from CMP-NeuAc radioactivity in the control run to determine the amount of sialylated. To complement this run, studies were also performed with [[9-^3H] […] In these runs, the amount of sialylated was determined by measuring radioactivity retained in the C18-cartridge. a. Equilibrium constant was 5.55 when CMP-[9-^3H]NeuAc was donor. b. ˜10-fold lower acceptor concentration was required for similar extents of reaction when CMP-[9-^3H]NeuAc was donor, compared to core-2 based donors and [4].
We tested the possibility that CMP-NeuAc formed above may be available for transfer to other acceptors using ST3Gal-II (scheme-II, FIG. 3). For this, three radiolabeled donors were prepared using methods described above: two were based on the mucin Core-2 structure ([[9-^3H] [1]] and [9-^3H]NeuAcα2,3Galβ1,3(6-O-SulfoGlcNAcβ1,6)GalNAcα-O—Al [[9-^3H] [4]]) while the third was based on the Globo glycolipid ([9-^3H] [3]). The transfer of [9-^3H]NeuAc from these sialylated donors to various T-hapten (Galβ1,3GalNAcα) and mucin core2-based glycoside acceptors in the presence of 5′-CMP and ST3Gal-II was assessed (Table III). All three […] of ST3Gal-II ([1], [3] and [4]) allowed formation of CMP-[9-^3H]NeuAc, and a diverse array of products.
The transfer of [9-^3H]NeuAc from [[9-^3H][1]] to D-Fucβ1,3GalNAcα-O-Bn in the presence of 5′-CMP and ST3Gal-II increased linearly in the first two hours and it reached saturation at 4 hours (FIG. 12), and thus the data in Table III (4 hours time point) represent equilibrium conditions. […] Further, diverse sialylated products can be formed using the same synthetic sialylated donor.
In order to compare the efficiency of individual reactions of scheme II, independent runs were performed where either 0.15 mM [9-^3H]CMP-NeuAc, 0.15 mM [9-^3H] [2] or 0.15 mM [9-^3H] [4] was the donor, and [5] was the acceptor (FIG. 3). 2 mM 5′-CMP was added in runs with core-2 donors and [4], and thus reverse sialylation of these molecules was feasible. Keq for transfer of sialic acid from CMP-NeuAc to [5] was 5.55 (FIG. 3a). […] (˜6 mM) or [9-^3H[4]] (˜6 mM). Thus, while the two-step mechanism results in lower conversion than CMP-NeuAc alone, the transfer of NeuAc still takes place at an appreciable rate.

ST6Gal-I = target: T2, ST6Gal-I (Rattus norvegicus, UniProt P13721); assay: CMP-NeuAc / UMP-NeuAc formed by reverse sialylation as sialyl donor, ST6Gal-I activity; settings: acceptor 2.5 mM Galβ1,4GlcNAcβ-O-Bn; donor [3] 0.0625 mM, 8 mM 5′-CMP or 5′-UMP, ST3Gal-II plus ST6GalI, 4 h
T2 construct: purchased Calbiochem
T2 sequence (P13721 1-403): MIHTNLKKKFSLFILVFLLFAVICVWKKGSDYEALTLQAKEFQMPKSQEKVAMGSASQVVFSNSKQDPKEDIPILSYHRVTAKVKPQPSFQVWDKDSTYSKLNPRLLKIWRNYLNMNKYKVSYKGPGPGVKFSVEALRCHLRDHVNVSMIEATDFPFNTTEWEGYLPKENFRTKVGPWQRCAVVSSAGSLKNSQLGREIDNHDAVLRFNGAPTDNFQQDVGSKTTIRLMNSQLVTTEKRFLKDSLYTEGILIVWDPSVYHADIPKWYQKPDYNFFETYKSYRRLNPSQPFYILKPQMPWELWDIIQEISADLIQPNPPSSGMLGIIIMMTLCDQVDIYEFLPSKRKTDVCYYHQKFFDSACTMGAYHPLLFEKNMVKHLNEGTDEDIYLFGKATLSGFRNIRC

ST3Gal-III = target: T3, ST3Gal-III (Rattus norvegicus, UniProt Q02734); assay: CMP-NeuAc / UMP-NeuAc formed by reverse sialylation as sialyl donor, ST3Gal-III activity; settings: acceptor 2.5 mM 4-O-MeGalβ1,4GlcNAcβ-O-Bn; donor [3] 0.0625 mM, 8 mM 5′-CMP or 5′-UMP, ST3Gal-II plus ST3Gal-III, 4 h
T3 construct: purchased Calbiochem
T3 sequence (Q02734 1-374): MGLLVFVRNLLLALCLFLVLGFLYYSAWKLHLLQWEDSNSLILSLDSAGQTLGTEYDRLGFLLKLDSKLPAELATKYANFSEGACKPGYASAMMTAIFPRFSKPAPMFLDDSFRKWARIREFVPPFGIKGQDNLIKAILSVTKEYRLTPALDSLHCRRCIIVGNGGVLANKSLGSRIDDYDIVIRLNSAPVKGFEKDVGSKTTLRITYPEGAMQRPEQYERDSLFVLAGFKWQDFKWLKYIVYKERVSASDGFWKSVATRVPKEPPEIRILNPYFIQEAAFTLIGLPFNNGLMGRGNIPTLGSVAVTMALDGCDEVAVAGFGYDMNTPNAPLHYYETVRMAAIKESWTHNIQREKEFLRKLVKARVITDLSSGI

ST3Gal-II [2] = target: T1, ST3Gal-II; assay: CMP-NeuAc / UMP-NeuAc formed by reverse sialylation as sialyl donor, ST3Gal-II activity; settings: acceptor 2.5 mM D-Fucβ1,3GalNAcα-O-Bn; donor [3] 0.0625 mM, 8 mM 5′-CMP or 5′-UMP, 4 h, blank subtracted

amount of acceptor [5] required for comparable transfer (ST3Gal-II [1]): 0.6 mM | Incorporation of [9-3H]NeuAc into the acceptor, ST6Gal-I activity (ST6Gal-I): 15066 CPM | Incorporation of [9-3H]NeuAc into the acceptor, ST3Gal-III activity (ST3Gal-III): 59531 CPM | Incorporation of [9-3H]NeuAc into the acceptor, ST3Gal-II activity (ST3Gal-II [2]): 134122 CPM
Compound: CC(=O)N[C@H]1[C@H]([C@H](O)[C@H](O)CO)O[C@](OP(=O)(O)OC[C@H]2O[C@@H](n3ccc(N)nc3=O)[C@H](O)[C@@H]2O)(C(=O)O)C[C@@H]1O [CMP-NeuAc, reference compound]
